Article PMC4411097, “Pachymic Acid Inhibits Growth and Induces Apoptosis of Pancreatic Cancer In Vitro and In Vivo by Targeting ER Stress” (PLoS ONE, 2015)

System: MIA PaCa-2 cells
Assay: DNA microarray analysis (Affymetrix Human PrimeView)
Type: cell-based
[1] = gene SRP19, probeset 11758864_at
[2] = gene STC1, probeset 11750279_a_at
[3] = gene TMEM201, probeset 11726819_at
[4] = gene TNFAIP2, probeset 11717823_s_at
[5] = gene TNFRSF12A, probeset 11745020_a_at
[6] = gene TNFSF18, probeset 11737853_at
[7] = gene TRAF1, probeset 11721588_at
[8] = gene TXNRD1, probeset 11750416_a_at
[9] = gene symbol ---, probeset AFFX-M27830_M_at

C=C(CC[C@@H](C(=O)O)[C@H]1[C@H](O)C[C@@]2(C)C3=C(CC[C@]12C)[C@@]1(C)CC[C@H](OC(C)=O)C(C)(C)[C@@H]1CC3)C(C)C [PA, Pachymic acid]
Mean (MiaPaca-2 * PA) (gene SPRY4, probeset 11736669_s_at, MiaPaca-2, PA-treated): 6.19 | Fold-Change (MiaPaca-2 * PA vs. MiaPaca-2 * control) [1]: 1.58 | Mean (MiaPaca-2 * PA) [1]: 8.71 | Fold-Change (MiaPaca-2 * PA vs. MiaPaca-2 * control) [2]: 1.56 | Mean (MiaPaca-2 * PA) [2]: 5.97 | Mean (MiaPaca-2 * PA) (gene STX1A, probeset 11720340_a_at): 6.73 | Fold-Change (MiaPaca-2 * PA vs. MiaPaca-2 * control) [3]: 1.56 | Mean (MiaPaca-2 * PA) [3]: 6.77 | Fold-Change (MiaPaca-2 * PA vs. MiaPaca-2 * control) (gene TNF, probeset 11721577_at): 1.57 | Mean (MiaPaca-2 * PA) (gene TNF, probeset 11721577_at): 5.89 | Fold-Change (MiaPaca-2 * PA vs. MiaPaca-2 * control) [4]: 1.60 | Mean (MiaPaca-2 * PA) [4]: 8.52 | Fold-Change (MiaPaca-2 * PA vs. MiaPaca-2 * control) [5]: 1.59 | Mean (MiaPaca-2 * PA) [5]: 9.93 | Fold-Change (MiaPaca-2 * PA vs. MiaPaca-2 * control) [6]: 1.61 | Mean (MiaPaca-2 * PA) [6]: 7.58 | Fold-Change (MiaPaca-2 * PA vs. MiaPaca-2 * control) (gene TRA2B, probeset 11734663_at, MiaPaca-2): 1.51 | Mean (MiaPaca-2 * PA) (gene TRA2B, probeset 11734663_at, MiaPaca-2, PA-treated): 5.21 | Fold-Change (MiaPaca-2 * PA vs. MiaPaca-2 * control) [7]: 1.57 | Mean (MiaPaca-2 * PA) [7]: 5.45 | Fold-Change (MiaPaca-2 * PA vs. MiaPaca-2 * control) [8]: 1.56 | Mean (MiaPaca-2 * PA) [8]: 9.74 | Fold-Change (MiaPaca-2 * PA vs. MiaPaca-2 * control) [9]: 1.54 | Mean (MiaPaca-2 * PA) [9]: 11.57 | Fold-Change (MiaPaca-2 * PA vs. MiaPaca-2 * control), CDKN1A (probeset 11715388_s_at): 1.87 | Mean (MiaPaca-2 * PA), CDKN1A (probeset 11715388_s_at): 8.59 | Fold-Change (MiaPaca-2 * PA vs. MiaPaca-2 * control), CTGF (probeset 11715441_a_at): 2.27 | Mean (MiaPaca-2 * PA), CTGF (probeset 11715441_a_at): 6.57 | Fold-Change (MiaPaca-2 * PA vs. MiaPaca-2 * control), CTGF (probeset 11715442_s_at): 2.36 | Mean (MiaPaca-2 * PA), CTGF (probeset 11715442_s_at): 7.76 | Fold-Change (MiaPaca-2 * PA vs. MiaPaca-2 * control), CYR61 (probeset 11715493_a_at): 2.12 | Mean (MiaPaca-2 * PA), CYR61 (probeset 11715493_a_at): 10.88 | Fold-Change (MiaPaca-2 * PA vs. MiaPaca-2 * control), SERPINE1 (probeset 11715636_a_at): 1.72 | Mean (MiaPaca-2 * PA), SERPINE1 (probeset 11715636_a_at): 9.63 | Fold-Change (MiaPaca-2 * PA vs. MiaPaca-2 * control), DUSP1 (probeset 11715766_a_at): 1.72 | Mean (MiaPaca-2 * PA), DUSP1 (probeset 11715766_a_at): 8.75 | Fold-Change (MiaPaca-2 * PA vs. MiaPaca-2 * control), HMOX1 (probeset 11716939_a_at): 1.83 | Mean (MiaPaca-2 * PA), HMOX1 (probeset 11716939_a_at): 7.80 | Fold-Change (MiaPaca-2 * PA vs. MiaPaca-2 * control), GADD45A (probeset 11717039_a_at): 1.88 | Mean (MiaPaca-2 * PA), GADD45A (probeset 11717039_a_at): 11.35 | Fold-Change (MiaPaca-2 * PA vs. MiaPaca-2 * control), EGR1 (probeset 11717860_a_at): 1.78 | Mean (MiaPaca-2 * PA), EGR1 (probeset 11717860_a_at): 10.72 | Fold-Change (MiaPaca-2 * PA vs. MiaPaca-2 * control), DNAJA4 (probeset 11718618_a_at): 2.01 | Mean (MiaPaca-2 * PA), DNAJA4 (probeset 11718618_a_at): 6.51 | Fold-Change (MiaPaca-2 * PA vs. MiaPaca-2 * control), IL8 (probeset 11718841_s_at): 2.40 | Mean (MiaPaca-2 * PA), IL8 (probeset 11718841_s_at): 12.69 | Fold-Change (MiaPaca-2 * PA vs. MiaPaca-2 * control), TNFAIP3 (probeset 11718939_s_at): 2.11 | Mean (MiaPaca-2 * PA), TNFAIP3 (probeset 11718939_s_at): 7.50 | Fold-Change (MiaPaca-2 * PA vs. MiaPaca-2 * control), TNFAIP3 (probeset 11718940_a_at): 2.00 | Mean (MiaPaca-2 * PA), TNFAIP3 (probeset 11718940_a_at): 6.10 | Fold-Change (MiaPaca-2 * PA vs. MiaPaca-2 * control), ATF3 (probeset 11719344_a_at): 3.30 | Mean (MiaPaca-2 * PA), ATF3 (probeset 11719344_a_at): 7.56 | Fold-Change (MiaPaca-2 * PA vs. MiaPaca-2 * control), CXCL1 (probeset 11719366_s_at): 2.03 | Mean (MiaPaca-2 * PA), CXCL1 (probeset 11719366_s_at): 12.27 | Fold-Change (MiaPaca-2 * PA vs. MiaPaca-2 * control), TRIB3 (probeset 11719811_a_at): 1.77 | Mean (MiaPaca-2 * PA), TRIB3 (probeset 11719811_a_at): 9.38 | Fold-Change (MiaPaca-2 * PA vs. MiaPaca-2 * control), HBEGF (probeset 11719898_s_at): 2.54 | Mean (MiaPaca-2 * PA), HBEGF (probeset 11719898_s_at): 8.25 | Fold-Change (MiaPaca-2 * PA vs. MiaPaca-2 * control), IL1B (probeset 11719916_at): 1.90 | Mean (MiaPaca-2 * PA), IL1B (probeset 11719916_at): 7.92 | Fold-Change (MiaPaca-2 * PA vs. MiaPaca-2 * control), IER3 (probeset 11720062_s_at): 2.10 | Mean (MiaPaca-2 * PA), IER3 (probeset 11720062_s_at): 10.23 | Fold-Change (MiaPaca-2 * PA vs. MiaPaca-2 * control), RELB (probeset 11722141_at): 1.71 | Mean (MiaPaca-2 * PA), RELB (probeset 11722141_at): 7.47 | Fold-Change (MiaPaca-2 * PA vs. MiaPaca-2 * control), B3GNT5 (probeset 11722705_at): 1.83 | Mean (MiaPaca-2 * PA), B3GNT5 (probeset 11722705_at): 6.95 | Fold-Change (MiaPaca-2 * PA vs. MiaPaca-2 * control), BIRC3 (probeset 11722850_a_at): 1.69 | Mean (MiaPaca-2 * PA), BIRC3 (probeset 11722850_a_at): 8.98 | Fold-Change (MiaPaca-2 * PA vs. MiaPaca-2 * control), BIRC3 (probeset 11722851_at): 1.77 | Mean (MiaPaca-2 * PA), BIRC3 (probeset 11722851_at): 7.17 | Fold-Change (MiaPaca-2 * PA vs. MiaPaca-2 * control), CDCP1 (probeset 11722867_at): 1.68 | Mean (MiaPaca-2 * PA), CDCP1 (probeset 11722867_at): 8.84 | Fold-Change (MiaPaca-2 * PA vs. MiaPaca-2 * control), HSPA6 (probeset 11723050_a_at): 9.74 | Mean (MiaPaca-2 * PA), HSPA6 (probeset 11723050_a_at): 8.06 | Fold-Change (MiaPaca-2 * PA vs. MiaPaca-2 * control), ZFAND2A (probeset 11723753_a_at): 2.17 | Mean (MiaPaca-2 * PA), ZFAND2A (probeset 11723753_a_at): 9.04 | Fold-Change (MiaPaca-2 * PA vs. MiaPaca-2 * control), FOSL1 (probeset 11724478_s_at): 1.74 | Mean (MiaPaca-2 * PA), FOSL1 (probeset 11724478_s_at): 8.17 | Fold-Change (MiaPaca-2 * PA vs. MiaPaca-2 * control), GBP1 (probeset 11726329_x_at): 1.76 | Mean (MiaPaca-2 * PA), GBP1 (probeset 11726329_x_at): 5.88 | Fold-Change (MiaPaca-2 * PA vs. MiaPaca-2 * control), SERPINB8 (probeset 11728413_at): 1.95 | Mean (MiaPaca-2 * PA), SERPINB8 (probeset 11728413_at): 8.88 | Fold-Change (MiaPaca-2 * PA vs. MiaPaca-2 * control), CXCL3 (probeset 11728476_a_at): 2.47 | Mean (MiaPaca-2 * PA), CXCL3 (probeset 11728476_a_at): 8.40 | Fold-Change (MiaPaca-2 * PA vs. MiaPaca-2 * control), CXCL3 (probeset 11728477_at): 2.55 | Mean (MiaPaca-2 * PA), CXCL3 (probeset 11728477_at): 8.95 | Fold-Change (MiaPaca-2 * PA vs. MiaPaca-2 * control), HSPA1A /// HSPA1B (probeset 11729119_a_at): 1.71 | Mean (MiaPaca-2 * PA), HSPA1A /// HSPA1B (probeset 11729119_a_at): 11.39
